Experimental data from patent US6737383B1, “Herbicidal oxadiazolidines” (priority 1999, dated 2004).

Legend:
morningglory = assay: Test B pre/postemergence morningglory; assay type: in vivo, Ipomoea hederacea
Procedure, shortened: (§1)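 Test chemicals in a non-phytotoxic solvent mixture with surfactant were sprayed preemergence onto planted seeds and postemergence onto plants 2 to 18 cm tall (1- to 4-leaf stage). After twelve to sixteen days in a greenhouse, injury was visually rated against untreated controls from 0 (no effect) to 10 (complete control).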

corn = assay: Test B pre/postemergence corn; assay type: in vivo, Zea mays
Procedure, shortened: as §1

duck salad = assay: Test B flood test duck salad; assay type: in vivo, Heteranthera limosa
Procedure, shortened: (§2)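 Each value is a visual injury score relative to controls, with 10 meaning complete control and 0 no effect. Evaluation took place twelve to sixteen days after the 2-leaf-stage plants were treated and kept in the greenhouse.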

surinam grass = assay: Test B pre/postemergence surinam grass; assay type: in vivo, Brachiaria decumbens
Procedure, shortened: as §1

blackgrass = assay: Test B pre/postemergence blackgrass; assay type: in vivo, Alopecurus myosuroides
Procedure, shortened: as §1

rape = assay: Test B pre/postemergence rape; assay type: in vivo, Brassica napus
Procedure, shortened: as §1

giant foxtail = assay: Test B pre/postemergence giant foxtail; assay type: in vivo, Setaria faberii
Procedure, shortened: as §1

wild oat = assay: Test B pre/postemergence wild oat; assay type: in vivo, Avena fatua
Procedure, shortened: as §1

wheat = assay: Test B pre/postemergence wheat; assay type: in vivo, Triticum aestivum
Procedure, shortened: as §1

smallflower flatsedge = assay: Test B flood test smallflower flatsedge; assay type: in vivo, Cyperus difformis
Procedure, shortened: as §2

soybean = assay: Test B pre/postemergence soybean; assay type: in vivo, Glycine max
Procedure, shortened: as §1

bedstraw = assay: Test B pre/postemergence bedstraw; assay type: in vivo, Galium aparine
Procedure, shortened: as §1

cocklebur = assay: Test B pre/postemergence cocklebur; assay type: in vivo, Xanthium strumarium
Procedure, shortened: as §1

crabgrass = assay: Test B pre/postemergence crabgrass; assay type: in vivo, Digitaria sanguinalis
Procedure, shortened: as §1

bamyardgrass = assay: Test B flood test barnyardgrass; assay type: in vivo, Echinochloa crus-galli
Procedure, shortened: as §2

velvetleaf = assay: Test B pre/postemergence velvetleaf; assay type: in vivo, Abutilon theophrasti
Procedure, shortened: as §1

[1] = Postemergence, Rate 125 g/ha, scale of 0 to 10 where 0 is no effect and 10 is complete control
[2] = Postemergence, Rate 250 g/ha, scale of 0 to 10, 0 is no effect, 10 is complete control
[3] = Postemergence, Rate 500 g/ha, scale of 0 to 10 where 0 is no effect and 10 is complete control
[4] = Postemergence, Rate 1000 g/ha, scale 0 to 10 (0 no effect, 10 complete control)
[5] = Preemergence, Rate 125 g/ha, scale of 0 to 10 where 0 is no effect and 10 is complete control
[6] = Preemergence, Rate 500 g/ha, scale of 0 to 10 where 0 is no effect and 10 is complete control
[7] = Rate 1000 g/ha, Preemergence, scale 0 to 10 (0 no effect, 10 complete control)
[8] = Pre-emergence, Rate 1000 g/ha, scale 0 to 10 (0 no effect, 10 complete control)
[9] = Rate 125 g/ha, under heading Pre-emergence, flood test species, visual evaluation after twelve to sixteen days
[10] = Rate 250 g/ha, Pre-emergence (flood test species), scale 0 to 10, 0 is no effect, 10 is complete control
[11] = Rate 500 g/ha, Pre-emergence section of Table B, 0 to 10 scale (0 no effect, 10 complete control)

CCOP(=O)(Cn1c(=O)on(C(=O)N(c2ccc(F)cc2)C(C)C)c1=O)OCC [Compound 587]
Plant response rating, Morningglory (morningglory; [1]): 4
Morningglory plant response rating (morningglory; [2]): 6
Plant response rating, Morningglory (morningglory; [3]): 7
Morningglory plant response rating (morningglory; [4]): 9
Morningglory plant response rating (morningglory; [5]): 0
Morningglory plant response rating (morningglory; [6]): 0
Plant response rating, Morningglory (morningglory; [7]): 3
Plant response rating, Corn (corn; [1]): 0
Corn plant response rating (corn; [2]): 0
Plant response rating, Corn (corn; [3]): 0
Corn plant response rating (corn; [4]): 0
Corn plant response rating (corn; [5]): 0
Corn plant response rating (0 to 10 scale) (corn; Preemergence, Rate 250 g/ha): 0
Corn plant response rating (corn; [6]): 0
Plant response rating, Corn (corn; [7]): 4
Ducksalad plant response rating (duck salad; [8]): 0
Ducksalad plant response rating (0 to 10 scale, 0 is no effect, 10 is complete control) (duck salad; [9]): 0
Ducksalad plant response rating (duck salad; [10]): 0
Ducksalad plant response rating (duck salad; [11]): 0
Plant response rating, B. signalgrass (surinam grass; [1]): 0
B. signalgrass plant response rating (surinam grass; [2]): 0
Plant response rating, B. signalgrass (surinam grass; [3]): 0
B. signalgrass plant response rating (surinam grass; [4]): 5
B. signalgrass plant response rating (surinam grass; [5]): 0
B. signalgrass plant response rating (0 to 10 scale, 0 is no effect, 10 is complete control) (surinam grass; Preemergence, Rate 250 g/ha): 5
B. signalgrass plant response rating (surinam grass; [6]): 7
Plant response rating, B. signalgrass (surinam grass; [7]): 10
Plant response rating, Blackgrass (blackgrass; [1]): 3
Blackgrass plant response rating (blackgrass; [2]): 3
Plant response rating, Blackgrass (blackgrass; [3]): 6
Blackgrass plant response rating (blackgrass; [5]): 3
Blackgrass plant response rating (0 to 10 scale) (blackgrass; Preemergence, Rate 250 g/ha): 6
Blackgrass plant response rating (blackgrass; [6]): 8
Plant response rating, Blackgrass (blackgrass; [7]): 10
Plant response rating, Rape (rape; [1]): 0
Rape plant response rating (rape; [2]): 0
Plant response rating, Rape (rape; [3]): 0
Rape plant response rating (rape; [4]): 0
Rape plant response rating (rape; [5]): 0
Rape plant response rating (rape; [6]): 1
Plant response rating, Rape (rape; [7]): 2
Plant response rating, Giant foxtail (giant foxtail; [1]): 0
Giant foxtail plant response rating (giant foxtail; [2]): 0
Plant response rating, Giant foxtail (giant foxtail; [3]): 2
Giant foxtail plant response rating (giant foxtail; [4]): 4
Giant foxtail plant response rating (giant foxtail; [5]): 8
Giant foxtail plant response rating (giant foxtail; [6]): 9
Plant response rating, Giant foxtail (giant foxtail; [7]): 10
Plant response rating, Wild oats (wild oat; [1]): 0
Wild oats plant response rating (wild oat; [2]): 0
Plant response rating, Wild oats (wild oat; [3]): 0
Wild oats plant response rating (wild oat; [4]): 0
Wild oats plant response rating (wild oat; [5]): 2
Wild oats plant response rating (wild oat; [6]): 9
Plant response rating, Wild oats (wild oat; [7]): 10
Plant response rating, Wheat (wheat; [1]): 0
Wheat plant response rating (wheat; [2]): 0
Plant response rating, Wheat (wheat; [3]): 0
Wheat plant response rating (wheat; [4]): 3
Wheat plant response rating (wheat; [5]): 0
Wheat plant response rating (wheat; [6]): 3
Plant response rating, Wheat (wheat; [7]): 7
S. Flatsedge plant response rating (smallflower flatsedge; [8]): 0
S. Flatsedge plant response rating (0 to 10 scale, 0 is no effect, 10 is complete control) (smallflower flatsedge; [9]): 0
S. Flatsedge plant response rating (smallflower flatsedge; [10]): 0
S. Flatsedge plant response rating (smallflower flatsedge; [11]): 0
Plant response rating, Soybean (soybean; [1]): 4
Soybean plant response rating (soybean; [2]): 6
Plant response rating, Soybean (soybean; [3]): 6
Soybean plant response rating (soybean; [4]): 6
Soybean plant response rating (soybean; [5]): 0
Soybean plant response rating (soybean; [6]): 2
Plant response rating, Soybean (soybean; [7]): 2
Plant response rating, Bedstraw (bedstraw; [3]): 3
Bedstraw plant response rating (bedstraw; [4]): 7
Bedstraw plant response rating (bedstraw; [5]): 0
Bedstraw plant response rating (bedstraw; [6]): 2
Plant response rating, Bedstraw (bedstraw; [7]): 3
Plant response rating, Cocklebur (cocklebur; [1]): 0
Cocklebur plant response rating (cocklebur; [2]): 0
Plant response rating, Cocklebur (cocklebur; [3]): 0
Cocklebur plant response rating (cocklebur; [4]): 0
Cocklebur plant response rating (cocklebur; [5]): 0
Cocklebur plant response rating (0 to 10 scale) (cocklebur; Preemergence, Rate 250 g/ha): 0
Cocklebur plant response rating (cocklebur; [6]): 0
Plant response rating, Cocklebur (cocklebur; [7]): 0
Plant response rating, Crabgrass (crabgrass; [1]): 0
Plant response rating, Crabgrass (crabgrass; [3]): 2
Crabgrass plant response rating (crabgrass; [4]): 3
Crabgrass plant response rating (crabgrass; [5]): 6
Crabgrass plant response rating (crabgrass; [6]): 9
Plant response rating, Crabgrass (crabgrass; [7]): 10
Barnyardgrass plant response rating (bamyardgrass; [8]): 0
Barnyardgrass plant response rating (0 to 10 scale, 0 is no effect, 10 is complete control) (bamyardgrass; [9]): 0
Barnyardgrass plant response rating (bamyardgrass; [10]): 0
Barnyardgrass plant response rating (bamyardgrass; [11]): 0
Plant response rating, Velvetleaf (velvetleaf; [1]): 0
Velvetleaf plant response rating (velvetleaf; [2]): 0
Plant response rating, Velvetleaf (velvetleaf; [3]): 0
Velvetleaf plant response rating (velvetleaf; [4]): 2
Velvetleaf plant response rating (velvetleaf; [5]): 0
Velvetleaf plant response rating (velvetleaf; [6]): 2
Plant response rating, Velvetleaf (velvetleaf; [7]): 4
